Source: patent publication US20090124643A1, “Use of a Cannabinoid CB1 Receptor Antagonist for Preparation of Drugs Useful for the Prevention and Treatment of Benign Prostatic Hypertrophy” (SANOFI-AVENTIS, priority 2006, published 2009)

Tests used:
testosterone-induced BPH = assay: Treatment of testosterone-induced BPH in rats; format: in vivo, rat; conditions: for Decrease in volume of total prostate / Decrease in volume of ventral prostate / Decrease in weight of total prostate / Decrease in weight of ventral prostate: % of the increase preinduced with testosterone
Method: Treatment of Testosterone-Induced BPH in Rats
Male rats are implanted with catheters and receive 18.75 mg per rat of testosterone, subcutaneously at D-4.
From day D0 to day D21, they receive rimonabant daily, at the dose of either 10 mg/kg per os, or of 30 mg/kg per os.
At day D22, the animals are sacrificed and their prostate is analyzed.
This decrease is evaluated as % of the increase preinduced with testosterone.

[1] = tested on: BPH in spontaneously hypertensive rats; assay: Treatment of BPH in spontaneously hypertensive rats (SHR), qualitative histological study of the prostate lobes; format: in vivo, rat; conditions: SHR rats treated for 28 days, from 10 mg/kg onward
Method: Treatment of BPH in Spontaneously Hypertensive Rats
The spontaneously hypertensive rat (SHR) model as described by Golomb et al., J. Androl. (2000), 21(1), 58-64 and Matituahou et al., J. Androl. (2003) 24(2), 263-9 is used.
A qualitative histological study of the prostate lobes is carried out on untreated SHR rats and on rats treated for 28 days with 10 mg/kg or 30 mg/kg of rimonabant.

[2] = rimonabant 10 mg/kg/d per os, D0 to D21
[3] = rimonabant 30 mg/kg/d per os, D0 to D21

Structure (SMILES) | Weight and volume of the prostate (testosterone-induced BPH; chronic treatment with rimonabant, 10 or 30 mg/kg per os daily, D0 to D21) | Decrease in volume of total prostate (testosterone-induced BPH; [2]) [%] | Decrease in volume of ventral prostate (testosterone-induced BPH; [2]) [%] | Decrease in weight of total prostate (testosterone-induced BPH; [2]) [%] | Decrease in weight of ventral prostate (testosterone-induced BPH; [2]) [%] | Decrease in volume of total prostate (testosterone-induced BPH; [3]) [%] | Decrease in volume of ventral prostate (testosterone-induced BPH; [3]) [%] | Decrease in weight of total prostate (testosterone-induced BPH; [3]) [%] | Decrease in weight of ventral prostate (testosterone-induced BPH; [3]) [%] | Histology of the ventral prostate lobes [1] | Increase in weight and volume of the total prostate and of the ventral prostate (testosterone-induced BPH; pretreatment with testosterone 18.75 mg per rat, subcutaneously at D-4)
Cc1c(C(=O)NN2CCCCC2)nn(-c2ccc(Cl)cc2Cl)c1-c1ccc(Cl)cc1 [Rimonabant, N-piperidino-5-(4-chlorophenyl)-1-(2,4-dichlorophenyl)-4-methylpyrazole-3-carboxamide] | significant decrease | 64 | 88 | 54 | 87 | 87 | 100 | 73 | 95 | the tissues are normal and non-hypertrophied | 
C[C@]12CC[C@H]3[C@@H](CCC4=CC(=O)CC[C@@]43C)[C@@H]1CC[C@@H]2O [testosterone] |  |  |  |  |  |  |  |  |  |  | approximately 35%
